As usually defined, the IC50 is the concentration that inhibits the measured activity by half.

The target in test [1] is human GM-CSF (Homo sapiens, UniProt P04141). Put plainly: GM-CSF dependent TF-1.8 cell proliferation. The settings on record: 10 μg/ml and 1 μg/ml, GM-CSF 0.025 ng/ml, FIG. 7. The test is classed as cell-based. As to the method: TF-1.8 cells were derived from TF-1 cells that respond to human GM-CSF (granulocyte-macrophage colony stimulating factor). TF-1.8 cells retained their responsiveness to GM-CSF. Routinely 2.5×10^4 cells are added to microplate wells that contain either no GM-CSF (negative control) or various dilutions of GM-CSF. The cells are cultured for 48 hours at 37° C. in a humidified atmosphere, after which the luciferase activity is measured by the addition of 50 μl of luciferase substrate buffer (50 mM Tris-HCl, pH 7.8, 15 mM MgSO4, 33.3 mM DTT, 0.1 mM EDTA, 0.5 mM Na-luciferin, 0.5 mM ATP, 0.25 mM lithium Co A and 0.5% v/v Triton X-100). Immediately after the addition of the luciferase buffer the plate is assayed for luciferase activity. Light emissions are detected on a Victor 1420 Multi-label counter (Wallac, Turku, Finland). A titration of GM-CSF established that these cells are dependent upon this growth factor (FIG. 6). When the effect of PPS, or other sulfated polysaccharides is to be measured, the wells also contain various concentrations of these molecules as well as the GM-CSF.
human GM-CSF, sequence (P04141 18-144): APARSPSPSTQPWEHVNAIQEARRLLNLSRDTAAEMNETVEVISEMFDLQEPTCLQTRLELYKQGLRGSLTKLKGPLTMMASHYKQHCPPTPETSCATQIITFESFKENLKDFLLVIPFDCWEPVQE

For test [2], the target named is T1, recombinant human IL-4 (rhIL-4) (Homo sapiens, UniProt P05112).
T1 construct: made in house; host or cells: baculovirus expression system
T1 sequence (P05112 25-153): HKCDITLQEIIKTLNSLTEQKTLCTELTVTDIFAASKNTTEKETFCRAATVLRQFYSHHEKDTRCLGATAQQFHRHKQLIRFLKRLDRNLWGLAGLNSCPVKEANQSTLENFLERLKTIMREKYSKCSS
Put plainly: BIAcore inhibition of IL-4 binding to immobilized heparin. The settings on record: BIAcore chip, titration, FIG. 3A. The source says:
(§1) The optical phenomenon of surface plasmon resonance is used to monitor physical interactions between molecules. Passing a solution of a potential protein ligand (e.g. IL-4, IL-5 or eotaxin) over a sensor surface to which a target (e.g. heparin) is coupled monitors the real-time binding of protein ligands to the immobilized target. Detection is achieved by measuring refractive index changes very close to the sensor surface. When the refractive index is altered, the angle at which plasmon resonance occurs changes and this change directly correlates with the amount of protein interacting with the surface. A BIAcore 2000 is conveniently used. […]
(§2) Biotinylated heparin is immobilized on the biosensor chip. […] Solutions containing potential protein ligands of interest are injected over the sensor chip surface, and the binding is measured in real time (Fernig, In: Proteoglycan protocols, Ed. R. V. Iozzo, Humana Press, Totowa, N.J., USA, 2001). Baculovirus expressed recombinant human IL-4 (rhIL-4) and baculovirus expressed recombinant human IL-5 (rhIL-5) readily bind to heparin immobilized by this method (see PCT/AU2005/000551). […] Similarly, recombinant human eotaxin (CCL11) expressed in E. coli binds readily to immobilized heparin and binding is specific as there is little eotaxin binding to sensor chips lacking heparin. […]
On the technique in general: SPR reads the build-up and loss of mass on a sensor chip optically.

The target of test [3] is T2, human MIP-1α (Homo sapiens, UniProt P10147).
T2 sequence (P10147 24-92): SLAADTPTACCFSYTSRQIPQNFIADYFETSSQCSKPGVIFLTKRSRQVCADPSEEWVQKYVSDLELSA
Briefly: MIP-1α induced migration of DMSO treated U937 cells (chemotaxis). The test is classed as cell-based. Conditions: MIP-1α 40 ng/ml. As to the method:
DMSO treated U937 cells were used to examine the cell migration in response to MIP-1α. U937 cells are a promonocytic human cell line originally derived from the pleural effusion of a patient with histiocytic lymphoma. These cells were treated with DMSO (1.2%) for 4 days before being used in chemotaxis experiments. The chemotaxis assays were performed in 96-well Costar chemotaxis plates and human MIP-1α (+/−inhibitor) was added to the bottom chamber and the DMSO treated U937 cells in RPMI/HEPES were added to the top chamber and the plate was incubated at 37° C. for 3 hour to allow cells to move from the top chamber into the bottom. The number of cells migrating into the bottom chamber was quantified by labeling with AQUEOUS ONE (30 μl/well) for 1 hour before absorbance at 490 nm is read. MIP-1α was used at a final concentration of 40 ng/ml and the inhibitors were the sulfated xylan pentasaccharide (10 and 50 μg/ml) and PPS (10 and 50 μg/ml). It is clear from these experiments that both PPS and the sulfated xylan pentasaccharide inhibited MIP-1α stimulated cell movement.

Test [4] has as its target T3, recombinant human IL-5 (rhIL-5) (Homo sapiens, UniProt P05113).
T3 construct: made in house; host or cells: baculovirus expression system
T3 sequence (P05113 20-134): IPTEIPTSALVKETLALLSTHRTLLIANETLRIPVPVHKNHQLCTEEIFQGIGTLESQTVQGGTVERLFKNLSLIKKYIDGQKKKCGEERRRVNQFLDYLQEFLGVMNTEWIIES
Put plainly: BIAcore inhibition of IL-5 binding to immobilized heparin. The settings on record: BIAcore chip, titration, FIG. 3B.
Source text: as §1, §2

Pentosan polysulfate [PPS]: the “Effect on TF-1.8 cell proliferation obtained with GM-CSF” value in test [1] is “no effect”. In addition, the IC50 in test [2] lay within 25 to 80 nM; in test [4] it was 4 to 10 nM. The entries for the “Inhibition of MIP-1α stimulated cell movement” value in test [3] (10 μg/ml) and in test [3] (50 μg/ml) were 48% and 69%, respectively.

(Values after patent publication US20180078576A1, “SULPHATED XYLANS FOR TREATMENT OR PROPHYLAXIS OF RESPIRATORY DISEASES” (Paradigm Biopharmaceuticals Limited, priority 2007, published 2018).)
